Data reported in PubChem BioAssay (NCI).
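Values below derive from 48-hour exposures of cells grown in 96-well plates, with endpoints linearly interpolated between the two concentrations bracketing the appropriate inhibition level. TGI denotes the concentration required for complete inhibition of growth.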

What was measured:
Assay in all cases: growth of human tumour cells (NCI), 48 h
MDA-MB-435 = test system: MDA-MB-435
SF-539 CNS = test system: SF-539 CNS
PC-3 prostate = test system: PC-3 prostate
A549 NSCLC = test system: A549 NSCLC
RXF 393 renal = test system: RXF 393 renal
MDA-MB-231 breast = test system: MDA-MB-231 breast
COLO 205 colon = test system: COLO 205 colon
TK-10 renal = test system: TK-10 renal
HCT-15 colon = test system: HCT-15 colon
SK-MEL-2 melanoma = test system: SK-MEL-2 melanoma

| SMILES | TGI (MDA-MB-435) | TGI (SF-539 CNS) | TGI (PC-3 prostate) | TGI (A549 NSCLC) | TGI (RXF 393 renal) | TGI (MDA-MB-231 breast) | TGI (COLO 205 colon) | TGI (TK-10 renal) | TGI (HCT-15 colon) | TGI (SK-MEL-2 melanoma) |
| --- | --- | --- | --- | --- | --- | --- | --- | --- | --- | --- |
| CC1(C)CC2(C)CC1CC2(O)c1ccccc1 (stereo unspecified) | > 100 µM | > 100 µM | > 100 µM | > 100 µM | > 100 µM | > 100 µM | > 100 µM | > 100 µM |  |  |
| CCC(COC(=O)CC[C@@H](NC(=O)C(C)NC(=O)C(C)OC1C(O)C(CO)OC(OCc2ccccc2)C1NC(C)=O)C(N)=O)NC1c2ccccc2Nc2cccc([N+](=O)[O-])c21 (stereo partly specified) |  | > 100 µM |  | > 100 µM | 84.6 µM |  | > 100 µM | > 100 µM | > 100 µM | > 100 µM |
| C#CCNC(=O)NCCCCC(NC(=O)OCc1ccccc1)C(=O)OCc1ccccc1 (stereo unspecified) |  | > 100 µM |  | > 100 µM | > 100 µM |  | 32.8 µM | > 100 µM | > 100 µM | > 100 µM |
| C=C1[C@@](C)([C@@H]2CCCS2)[C@H]2C(C)=C[C@]1(C)n1c(=O)n(-c3ccccc3)c(=O)n12 | > 100 µM | > 100 µM | > 100 µM | > 100 µM |  | > 100 µM | > 100 µM | > 100 µM | > 100 µM | > 100 µM |
| CCCc1c(C(=O)OCC)[nH]c(-c2ccc(-c3[nH]c(C(=O)OCC)c(CCC)c3C(=O)OCC)s2)c1C(=O)OCC |  | > 100 µM |  | > 100 µM | 28.5 µM |  | > 100 µM | > 100 µM | > 100 µM | 57.2 µM |
| CCOC(=O)C(C)Sc1nnc(COc2ccccc2OC)n1-c1ccccc1 (stereo unspecified) |  | > 100 µM |  | > 100 µM | > 100 µM |  | > 100 µM | > 100 µM | 30.6 µM | > 100 µM |
| CCOC(=O)c1c(C)nc2c(c1-c1cn(-c3ccccc3)nc1-c1ccccc1)C(=O)c1ccccc1-2 | > 100 µM |  | > 100 µM | > 100 µM | > 100 µM | > 100 µM | > 100 µM | > 100 µM | > 100 µM | > 100 µM |
| Cc1ccc(-c2cc(O)c3nc4ccccc4n3c2)cc1 | > 100 µM | > 100 µM | > 100 µM | > 100 µM | > 100 µM | > 100 µM | > 100 µM | > 100 µM | > 100 µM |  |
| Oc1ccccc1C1C=C(c2ccccc2)NC(N2CCCCC2)=C1c1nc2ccccc2[nH]1 (stereo unspecified) | 29.6 µM | 29.7 µM | 24.5 µM | 29.2 µM | 24.7 µM | 24.4 µM | 5.81 µM | 34.3 µM | 35.9 µM |  |
| CCOC(=O)c1cc2c(OCc3ccccc3)c(OC)cc3c2c(n1)N(c1ccc(OC)cc1)C(C)C3 (stereo unspecified) |  |  |  | > 50 µM | > 50 µM |  | > 50 µM | > 50 µM | > 50 µM | > 50 µM |
| CCCCCCCCCC(=O)N[C@@H](c1ccco1)[C@@H](O)C(=O)O[C@H]1C[C@@]2(O)[C@@H](OC(=O)c3ccccc3)[C@@H]3[C@]4(OC(C)=O)CO[C@@H]4C[C@H](O)[C@@]3(C)C(=O)[C@H](OC(C)=O)C(=C1C)C2(C)C | 0.0345 µM | 0.17 µM | > 35.1 µM | > 50 µM | 0.898 µM | 4.47 µM | 0.0335 µM | 9.22 µM | 8.73 µM |  |
| O=C1CC(C(CC(=O)c2ccccc2)c2ccccc2)C(=O)c2ccccc2N1 (stereo unspecified) | > 100 µM | > 100 µM | > 100 µM | > 100 µM |  | > 100 µM | > 100 µM |  | 94.9 µM | 41.4 µM |
| Cc1c2c(cc3c1C(=O)C(=O)C1=C3OC[C@@H]1C)C(C)(C)CCC2 |  | 29.8 µM |  | 26.8 µM | 33.5 µM |  | 20.4 µM | 56.7 µM | 27.6 µM | 21.2 µM |
| NC(=O)c1cc(N(CCO)CCO)c([N+](=O)[O-])cc1[N+](=O)[O-] | > 100 µM | > 100 µM | > 100 µM | > 100 µM | > 100 µM |  | > 100 µM | > 100 µM | > 100 µM | > 100 µM |
| O=C1CC(C(OCc2ccccc2)C(OCc2ccccc2)C(COCc2ccccc2)OCc2ccccc2)CC(=O)N1 (stereo unspecified) | > 100 µM | > 100 µM | > 100 µM | > 100 µM | > 100 µM | > 100 µM | > 100 µM | > 100 µM | > 100 µM |  |
| O=C(C#Cc1ccccc1)N1c2ccccc2CC1c1c[nH]c2ccccc12 (stereo unspecified) |  | 31.1 µM |  | 49.1 µM | 19.5 µM |  | 31.6 µM | 44.2 µM | 24.9 µM | 26.6 µM |
| Nc1ccc(Nc2cc(=O)[nH]c(=O)[nH]2)cc1 | > 100 µM | > 100 µM | > 100 µM | > 100 µM |  | > 100 µM |  | > 100 µM | > 100 µM |  |
| CC(=O)NC1=C(NCCCl)C(=O)c2ccccc2C1=O | 31.1 µM | > 100 µM | 96.2 µM | > 100 µM | 69.8 µM | > 100 µM | > 100 µM |  | > 100 µM |  |
| COc1ccc2nc3c(c(NCCCN(C)C)c2c1)CCCC3 |  | 30.8 µM |  | 49.9 µM | 29.5 µM |  | 23 µM | > 100 µM | 33.9 µM | 37.1 µM |
| O=C1Nc2cc([N+](=O)[O-])c(Br)cc2C1=O |  | 41 µM |  | > 100 µM | 39.4 µM |  | 35 µM | > 100 µM | 37.1 µM | 71.9 µM |
| Cc1ccc(-c2nnc(CCCCCCCCc3nnc(-c4ccc(C)cc4O)n3N)n2N)c(O)c1 | > 100 µM | > 100 µM |  | > 100 µM |  | > 100 µM | > 100 µM | > 100 µM | > 100 µM | > 100 µM |
| CC(=O)OC12c3ccccc3C(c3ccccc31)C1C(=O)N(c3ccccn3)C(=O)C12 (stereo unspecified) |  | > 100 µM | > 100 µM | > 100 µM | > 100 µM | > 100 µM | > 100 µM | > 100 µM | > 100 µM |  |
| CC1(C)C2CCC3(OCCO3)C1C(O)C2 (stereo unspecified) |  | > 100 µM |  | > 100 µM | > 100 µM |  |  | > 100 µM | > 100 µM | > 100 µM |
| Cc1cn(C2CC(CCCO)C(CO)O2)c(=O)[nH]c1=O (stereo unspecified) |  |  |  | > 100 µM | > 100 µM |  | > 100 µM | > 100 µM | > 100 µM | > 100 µM |
| N#C/C(=C\c1cccc(O)c1O)C(N)=O |  | > 100 µM |  | > 100 µM | 28 µM |  | 77.7 µM | > 100 µM | > 100 µM | > 100 µM |
